A word on the Kd: it is the equilibrium constant for the complex coming apart.

Structures are written as SMILES.

The target of assay [1] is chloride channel (human erythrocyte chloride conductance). The assay is described as follows: In vitro human erythrocyte chloride conductance. The assay is classed as cell-based. The conditions noted are these: suspensions of human erythrocytes; calculated from dose-response of membrane Cl-conductance (GCl); read-out: KD-value, chloride conductance block. From the text: In this example the chloride channel blocking activity of an acetamide derivative representative of the invention, i.e. Compound 3 (2-(4-Chloro-phenyl)-N-[4′-chloro-3-(1H-tetrazol-5-yl)-biphenyl-4-yl]-acetamide), has been determined.
All dose-response experiments were therefore performed by concomitant measurements of conductive netfluxes of Cl^− (JCl) and membrane potentials (Vm) in suspensions of erythrocytes as described by Bennekou et al. (Bennekou P and Christophersen P: Flux ratio of Valinomycin—Mediated K^+Fluxes across the Human Red Cell Membrane in the presence of the Protronophore CCCP; J. Membrane Biol. 1986 93 221-227).
The membrane Cl-conductances (GCl) were calculated according to Hodgkin et al. (Hodgkin A L and Huxley A F: The components of membrane conductance in the giant axon of Loligo; J. Physiol. Lond. 1952 116 449-472) using the following equation: […]
where F is the Faraday constant and ECl is the Nernst potential for the Cl-ion.

Assay [2] addresses T1, BK channels heterologously expressed in Xenopus laevis oocytes (Homo sapiens, UniProt Q12791).
T1 construct: expressed in transfected cells; host or cells: Xenopus laevis oocytes
Kind of assay: BK channel activation, two-electrode voltage clamp in Xenopus laevis oocytes. It is filed as cell-based. The conditions noted are these: depolarising step to +20 mV. As to the method:
In this example the BK channel opening activity of two acetamide derivatives of to the invention, i.e. 2-(3,5-difluoro-phenyl)-N-[3-(5-oxo-4,5-dihydro-[1,2,4]oxadiazol-3-yl)-4′-trifluoromethyl-biphenyl-4-yl]-acetamide (Compound 7), and 2-(3,5-bis-trifluoromethyl-phenyl)-N-[4-bromo-2-(1H-tetrazol-5-yl)-phenyl]-acetamide (Compound 2) herein designated Compound A and Compound B, respectively, is determined using BK channels heterologously expressed in Xenopus laevis oocytes.
The electrical current through the BK channel is measured by conventional two-electrode voltage clamp. BK current is activated by repeated step protocols. In brief, this protocol goes from a resting membrane potential of −40 mV lasting for 5 s to a depolarised step to +20 mV lasting for 1 s. The protocol was repeated continuously.
Having reached a stable current level, Compound A (3 μM) and Compound B (10 μM), respectively, was added. A marked increase in the current activated by depolarisation could be observed. The BK current activity returned to baseline after approximately 30-80 seconds of wash. In summary BK current was increased by 367±92% in the presence of 3 μM of Compound A (n=3, SD value), and 327±88% in the presence of 10 μM of Compound B.
A general note: Two-electrode voltage clamp holds a large cell at a set potential and records current.

T1 sequence (Q12791 whole entry): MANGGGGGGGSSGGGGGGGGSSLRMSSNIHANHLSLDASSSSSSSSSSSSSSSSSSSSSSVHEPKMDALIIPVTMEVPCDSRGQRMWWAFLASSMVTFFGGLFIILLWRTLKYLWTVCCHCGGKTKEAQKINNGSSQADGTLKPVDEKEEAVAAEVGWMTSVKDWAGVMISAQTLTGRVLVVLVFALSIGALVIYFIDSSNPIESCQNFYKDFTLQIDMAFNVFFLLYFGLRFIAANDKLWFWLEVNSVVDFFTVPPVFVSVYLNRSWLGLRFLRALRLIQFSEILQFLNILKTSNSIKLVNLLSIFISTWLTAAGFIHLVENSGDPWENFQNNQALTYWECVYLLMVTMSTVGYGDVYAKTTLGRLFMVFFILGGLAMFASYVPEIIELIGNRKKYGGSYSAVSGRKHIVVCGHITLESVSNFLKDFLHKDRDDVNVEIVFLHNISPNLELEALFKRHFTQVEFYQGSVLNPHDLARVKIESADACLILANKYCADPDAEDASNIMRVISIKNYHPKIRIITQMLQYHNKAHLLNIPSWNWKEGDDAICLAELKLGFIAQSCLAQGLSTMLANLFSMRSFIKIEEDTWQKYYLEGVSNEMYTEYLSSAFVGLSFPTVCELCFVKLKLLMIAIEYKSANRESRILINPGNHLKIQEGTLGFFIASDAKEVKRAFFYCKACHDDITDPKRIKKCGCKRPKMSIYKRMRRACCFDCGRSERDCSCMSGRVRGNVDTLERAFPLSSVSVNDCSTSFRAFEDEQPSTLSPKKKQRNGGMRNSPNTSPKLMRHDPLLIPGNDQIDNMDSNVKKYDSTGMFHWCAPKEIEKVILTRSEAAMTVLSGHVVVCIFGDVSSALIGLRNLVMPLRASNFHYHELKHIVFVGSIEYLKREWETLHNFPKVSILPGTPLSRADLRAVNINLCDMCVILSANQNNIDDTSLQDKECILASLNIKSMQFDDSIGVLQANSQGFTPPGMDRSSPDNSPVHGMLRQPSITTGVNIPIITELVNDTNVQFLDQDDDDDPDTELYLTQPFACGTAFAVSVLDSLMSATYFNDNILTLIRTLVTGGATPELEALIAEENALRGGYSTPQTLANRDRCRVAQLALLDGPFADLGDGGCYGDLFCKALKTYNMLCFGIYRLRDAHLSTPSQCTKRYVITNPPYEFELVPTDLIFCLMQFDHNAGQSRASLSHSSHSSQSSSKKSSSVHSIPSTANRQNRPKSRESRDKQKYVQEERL

For `O=C(Cc1ccc(Cl)cc1)Nc1ccc(-c2ccc(Cl)cc2)cc1-c1nnn[nH]1` [Compound 3, 2-(4-Chloro-phenyl)-N-[4′-chloro-3-(1H-tetrazol-5-yl)-biphenyl-4-yl]-acetamide], the Kd in assay [1] is 90 nM.

Consider `O=C(Cc1cc(F)cc(F)c1)Nc1ccc(-c2ccc(C(F)(F)F)cc2)cc1-c1noc(=O)[nH]1` [Compound A, 2-(3,5-difluoro-phenyl)-N-[3-(5-oxo-4,5-dihydro-[1,2,4]oxadiazol-3-yl)-4′-trifluoromethyl-biphenyl-4-yl]-acetamide], for which, in assay [2] (3 μM compound, n=3, SD value), the BK current increase was 367±92%.

With `O=C(Cc1cc(C(F)(F)F)cc(C(F)(F)F)c1)Nc1ccc(Br)cc1-c1nnn[nH]1` [Compound B, 2-(3,5-Bis-trifluoromethyl-phenyl)-N-[4-bromo-2-(1H-tetrazol-5-yl)-phenyl]-acetamide], in assay [2] (10 μM compound), the BK current increase worked out at 327±88%.

The values are drawn from patent US20100137381A1, “ACETAMIDE DERIVATIVES AS POTASSIUM CHANNEL MODULATORS” (NeuroSearch A/S, priority 2007, published 2010).
